# Results published in patent US8461178B2, “Naphthyridine derivatives and the use thereof as kinase inhibitors” (Aeterna Zentaris GmbH, priority 2009, dated 2013).
# Read-outs that look alike come from different tables or passages of the source.
# How the values were obtained:
# Aurora-B = target: T1, Aurora-B (Homo sapiens, UniProt Q96GD4); experiment: Cell-free kinase assay (ALPHA technology), Aurora-B; assay type: biochemical
# T1 construct: in some cases as full-length kinases, in some cases as truncated fragments; purchased Upstate/Millipore #14-835
# Experimental: The kinase reaction was stopped by adding 10 μl of the ALPHA bead mix (10 μg/ml, #6760617/PerkinElmer), pre-incubated with anti-phospho PLK antibody (100 pM, #5070, Cell Signaling), in 25 mM Tris, 200 mM NaCl, 100 mM EDTA and 0.3% BSA, and left to stand overnight. The luminiscence was detected the next morning in a Envision instrument (Perkin Elmer). […] 0% controls contained no ATP whereas the 100% controls contained no test substance. The IC50 values were determined with GraphPadPrism.
# cRaf-Mek1-Erk2 = cRaf-Mek1-Erk2 (Homo sapiens, UniProt P04049+P28482+Q02750); conditions: read-out: IC50 cRaf-Mek-Erk; at 10 μM ATP
# Experimental: The inhibitory effect of the inventive compounds was tested on various human serine/threonine kinases and tyrosine kinases in enzymatic assays. Recombinant human kinases, for example Aurora-B, cRaf-Mek1-Erk2, Erk2, Pim-1, HIPK1, KDR, TrkA, Yes, c-Abl and others were used, in some cases as full-length kinases, in some cases as truncated fragments—but at least consisting of the functional kinase domains. The commercial kinase proteins (Proqinase, Millipore) were used as recombinant fusion proteins with GST (glutathione S-transferase) tag or His tag. Depending on the substrate type, the different kinase reactions were quantified by suitable ALPHA™ beads (PerkinElmer).
# The calculation of % inhibition values per substance concentration was done by means of the following formula from the raw data determined in the Envision reader:
# (§1) The controls were determined 16 fold. 0% controls contained no ATP whereas the 100% controls contained no test substance. The IC50 values were determined with GraphPadPrism.
# Erk2 = target: T2, Erk2 (Homo sapiens, UniProt P28482); experiment: Cell-free kinase assay (ALPHA technology), Erk2; assay type: biochemical; conditions: at 10 μM ATP
# T2 construct: in some cases as full-length kinases, in some cases as truncated fragments
# Experimental: as §1
# [1] = at 10 μM ATP, read-out: IC50 Aurora-B
# T1 sequence (Q96GD4 whole entry, the tested form may be a part): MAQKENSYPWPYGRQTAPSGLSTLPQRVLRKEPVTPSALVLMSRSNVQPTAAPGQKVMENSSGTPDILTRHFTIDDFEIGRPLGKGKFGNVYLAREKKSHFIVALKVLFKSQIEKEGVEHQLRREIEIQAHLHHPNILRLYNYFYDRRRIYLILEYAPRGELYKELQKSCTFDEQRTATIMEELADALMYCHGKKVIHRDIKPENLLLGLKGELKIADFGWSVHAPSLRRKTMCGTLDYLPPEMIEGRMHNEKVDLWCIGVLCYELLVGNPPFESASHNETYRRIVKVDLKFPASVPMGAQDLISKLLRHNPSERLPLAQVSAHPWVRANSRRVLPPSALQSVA
# T2 sequence (P28482 whole entry, the tested form may be a part): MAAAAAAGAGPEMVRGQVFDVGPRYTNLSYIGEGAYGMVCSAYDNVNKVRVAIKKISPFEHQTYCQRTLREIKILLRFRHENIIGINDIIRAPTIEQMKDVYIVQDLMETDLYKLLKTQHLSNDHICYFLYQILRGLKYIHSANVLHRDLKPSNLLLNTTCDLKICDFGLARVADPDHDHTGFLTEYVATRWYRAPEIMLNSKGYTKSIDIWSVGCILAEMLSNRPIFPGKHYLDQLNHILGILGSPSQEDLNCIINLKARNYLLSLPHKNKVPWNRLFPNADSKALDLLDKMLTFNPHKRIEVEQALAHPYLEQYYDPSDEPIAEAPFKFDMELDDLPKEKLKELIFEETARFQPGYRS
# cRaf-Mek1-Erk2, sequence (P04049 whole entry, the tested form may be a part): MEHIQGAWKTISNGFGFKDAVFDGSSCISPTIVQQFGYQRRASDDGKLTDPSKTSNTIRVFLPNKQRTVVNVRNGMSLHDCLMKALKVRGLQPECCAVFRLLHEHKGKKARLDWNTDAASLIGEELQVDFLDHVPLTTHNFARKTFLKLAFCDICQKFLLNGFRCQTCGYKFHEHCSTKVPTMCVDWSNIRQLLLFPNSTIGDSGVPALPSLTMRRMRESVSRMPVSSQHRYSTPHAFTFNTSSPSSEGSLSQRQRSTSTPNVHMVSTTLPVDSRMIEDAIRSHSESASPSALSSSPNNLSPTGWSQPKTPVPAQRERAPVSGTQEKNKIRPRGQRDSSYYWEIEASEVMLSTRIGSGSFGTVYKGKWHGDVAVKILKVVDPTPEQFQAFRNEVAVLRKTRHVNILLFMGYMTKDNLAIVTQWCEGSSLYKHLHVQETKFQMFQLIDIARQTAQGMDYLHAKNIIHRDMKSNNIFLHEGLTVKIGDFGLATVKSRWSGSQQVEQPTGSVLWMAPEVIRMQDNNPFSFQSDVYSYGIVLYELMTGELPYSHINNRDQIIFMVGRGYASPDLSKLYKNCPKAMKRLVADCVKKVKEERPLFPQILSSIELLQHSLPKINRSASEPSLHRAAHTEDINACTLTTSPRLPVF
# cRaf-Mek1-Erk2, sequence (Q02750 whole entry, the tested form may be a part): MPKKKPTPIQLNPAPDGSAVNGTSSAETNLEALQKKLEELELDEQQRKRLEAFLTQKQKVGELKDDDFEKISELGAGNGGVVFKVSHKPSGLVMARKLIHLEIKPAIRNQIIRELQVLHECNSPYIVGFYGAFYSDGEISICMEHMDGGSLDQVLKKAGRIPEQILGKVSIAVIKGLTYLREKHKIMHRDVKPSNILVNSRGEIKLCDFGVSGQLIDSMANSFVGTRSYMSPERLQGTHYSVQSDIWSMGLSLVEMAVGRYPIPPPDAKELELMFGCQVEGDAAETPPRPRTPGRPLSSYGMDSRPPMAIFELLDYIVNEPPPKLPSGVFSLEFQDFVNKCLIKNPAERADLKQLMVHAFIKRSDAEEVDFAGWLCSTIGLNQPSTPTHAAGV
# cRaf-Mek1-Erk2, sequence (P28482 2-360): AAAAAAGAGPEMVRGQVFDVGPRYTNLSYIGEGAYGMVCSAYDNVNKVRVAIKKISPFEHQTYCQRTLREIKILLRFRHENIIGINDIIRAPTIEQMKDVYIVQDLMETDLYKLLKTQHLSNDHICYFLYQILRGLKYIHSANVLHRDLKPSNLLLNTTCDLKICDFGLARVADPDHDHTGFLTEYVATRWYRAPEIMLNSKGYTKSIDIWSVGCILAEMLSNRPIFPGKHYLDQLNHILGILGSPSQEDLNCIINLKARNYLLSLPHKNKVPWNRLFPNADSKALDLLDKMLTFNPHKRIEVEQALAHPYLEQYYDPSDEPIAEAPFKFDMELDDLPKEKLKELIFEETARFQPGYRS
IC50 (Aurora-B; [1]) [µM],IC50 (cRaf-Mek1-Erk2) [µM],IC50 (Erk2) [µM],melting point [°C],IC50 (Aurora-B; read-out: IC50 values against Aurora-B) [µM],Structure (SMILES)
0.141,16.9,> 31.6,185 to 186,–,"Cn1cc(-c2cnc3c(NC(=O)NCCCCc4ccccc4)ccnc3c2)cn1 [Compound 21, 1-[7-(1-Methyl-1H-pyrazol-4-yl)-[1,5]naphthyridin-4-yl]-3-(4-phenyl-butyl)-urea]"
1.26,> 100,> 100,294 to 295,–,"Cn1cc(-c2cnc3c(NC(=O)Nc4ccccc4)ccnc3c2)cn1 [Compound 23, 1-[7-(1-Methyl-1H-pyrazol-4-yl)-[1,5]naphthyridin-4-yl]-3-phenyl-urea]"
0.885,> 100,> 100,188 to 189,–,"CCCCCCNC(=O)Nc1ccnc2cc(-c3cnn(C)c3)cnc12 [Compound 25, 1-Hexyl-3-[7-(1-methyl-1H-pyrazol-4-yl)-[1,5]naphthyridin-4-yl]-urea]"
0.066,> 100,> 100,237 to 238,–,"Cn1cc(-c2cnc3c(NC(=O)NCc4ccccc4)ccnc3c2)cn1 [Compound 31, 1-Benzyl-3-[7-(1-methyl-1H-pyrazol-4-yl)-[1,5]naphthyridin-4-yl]-urea]"
0.164,12.8,> 31.6,219 to 220,–,"CCCCNC(=O)Nc1ccnc2cc(-c3cnn(C)c3)cnc12 [Compound 32, 1-Butyl-3-[7-(1-methyl-1H-pyrazol-4-yl)-[1,5]naphthyridin-4-yl]-urea]"
0.086,16.6,> 100,222 to 223,–,"Cn1cc(-c2cnc3c(NC(=O)NCCc4ccccc4)ccnc3c2)cn1 [Compound 33, 1-[7-(1-Methyl-1H-pyrazol-4-yl)-[1,5]naphthyridin-4-yl]-3-phenethyl-urea]"

# Continued, molecule first:
Structure (SMILES),IC50 (Aurora-B; [1]) [µM],IC50 (cRaf-Mek1-Erk2) [µM],IC50 (Erk2) [µM],melting point [°C],IC50 (Aurora-B; read-out: IC50 values against Aurora-B) [µM]
"Cn1cc(-c2cnc3c(NC(=O)NCC(F)(F)F)ccnc3c2)cn1 [Compound 20, 1-[7-(1-Methyl-1H-pyrazol-4-yl)-[1,5]naphthyridin-4-yl]-3-(2,2,2-trifluoro-ethyl)-urea]",0.129,27.3,> 100,> 300,–
"Cn1cc(-c2cnc3c(NC(=O)NC4CCCCC4)ccnc3c2)cn1 [Compound 22, 1-Cyclohexyl-3-[7-(1-methyl-1H-pyrazol-4-yl)-[1,5]naphthyridin-4-yl]-urea]",0.354,> 31.6,> 100,200 to 201,–
"Cn1cc(-c2cnc3c(NC(=O)NC4CC(F)(F)C4)ccnc3c2)cn1 [Compound 24, 1-(3,3-Difluoro-cyclobutyl)-3-[7-(1-methyl-1H-pyrazol-4-yl)-[1,5]naphthyridin-4-yl]-urea]",0.784,26.2,> 100,229 to 230,–
"Cn1cc(-c2cnc3c(NC(=O)NC4CCCC4)ccnc3c2)cn1 [Compound 34, 1-Cyclopentyl-3-[7-(1-methyl-1H-pyrazol-4-yl)-[1,5]naphthyridin-4-yl]-urea]",0.108,0.676,4.08,207 to 208,–
"O=C(Nc1ccnc2cc(-c3cn[nH]c3)cnc12)NC1CC1 [Compound 35, 1-Cyclopropyl-3-[7-(1H-pyrazol-4-yl)-[1,5]naphthyridin-4-yl]-urea]",0.085,4.65,> 100,229 to 231,–
"O=C(Nc1ccnc2cc(-c3ccsc3)cnc12)NC1CC1 [Compound 36, 1-Cyclopropyl-3-(7-thiophen-3-yl-[1,5]naphthyridin-4-yl)-urea]",0.103,3.85,> 100,228 to 229,–
"O=C(Nc1ccnc2cc(-c3ccnc(F)c3)cnc12)NC1CC1 [Compound 37, 1-Cyclopropyl-3-[7-(2-fluoro-pyridin-4-yl)-[1,5]naphthyridin-4-yl]-urea]",0.935,10.3,> 100,226 to 229,–
"O=C(Nc1ccnc2cc(-c3cnn(CCN4CCOCC4)c3)cnc12)NC1CC1 [Compound 38, 1-Cyclopropyl-3-{7-[1-(2-morpholin-4-yl-ethyl)-1H-pyrazol-4-yl]-[1,5]naphthyridin-4-yl}-urea]",0.028,2.81,> 100,127 to 129,< 0.1
"O=C(Nc1ccnc2cc(-c3ccccc3)cnc12)NC1CC1 [Compound 39, 1-Cyclopropyl-3-(7-phenyl-[1,5]naphthyridin-4-yl)-urea]",0.889,20.3,> 100,188 to 190,–
"O=C(Nc1ccnc2cc(-c3ccc4[nH]ccc4c3)cnc12)NC1CC1 [Compound 40, 1-Cyclopropyl-3-[7-(1H-indol-5-yl)-[1,5]naphthyridin-4-yl]-urea]",2.12,> 100,> 100,214 to 215,–
